{"source": "patent US11524966B1", "about": "(Valo Early Discovery, Inc., priority 2017, dated 2022)", "data": [{"molecular_target": "T1, USP25 (USP25-His6, Boston Biochem E-546) (Homo sapiens, UniProt Q9UHP3)", "T1 construct": "His6; purchased Boston Biochem E-546", "T1 sequence (Q9UHP3 1-1055)": "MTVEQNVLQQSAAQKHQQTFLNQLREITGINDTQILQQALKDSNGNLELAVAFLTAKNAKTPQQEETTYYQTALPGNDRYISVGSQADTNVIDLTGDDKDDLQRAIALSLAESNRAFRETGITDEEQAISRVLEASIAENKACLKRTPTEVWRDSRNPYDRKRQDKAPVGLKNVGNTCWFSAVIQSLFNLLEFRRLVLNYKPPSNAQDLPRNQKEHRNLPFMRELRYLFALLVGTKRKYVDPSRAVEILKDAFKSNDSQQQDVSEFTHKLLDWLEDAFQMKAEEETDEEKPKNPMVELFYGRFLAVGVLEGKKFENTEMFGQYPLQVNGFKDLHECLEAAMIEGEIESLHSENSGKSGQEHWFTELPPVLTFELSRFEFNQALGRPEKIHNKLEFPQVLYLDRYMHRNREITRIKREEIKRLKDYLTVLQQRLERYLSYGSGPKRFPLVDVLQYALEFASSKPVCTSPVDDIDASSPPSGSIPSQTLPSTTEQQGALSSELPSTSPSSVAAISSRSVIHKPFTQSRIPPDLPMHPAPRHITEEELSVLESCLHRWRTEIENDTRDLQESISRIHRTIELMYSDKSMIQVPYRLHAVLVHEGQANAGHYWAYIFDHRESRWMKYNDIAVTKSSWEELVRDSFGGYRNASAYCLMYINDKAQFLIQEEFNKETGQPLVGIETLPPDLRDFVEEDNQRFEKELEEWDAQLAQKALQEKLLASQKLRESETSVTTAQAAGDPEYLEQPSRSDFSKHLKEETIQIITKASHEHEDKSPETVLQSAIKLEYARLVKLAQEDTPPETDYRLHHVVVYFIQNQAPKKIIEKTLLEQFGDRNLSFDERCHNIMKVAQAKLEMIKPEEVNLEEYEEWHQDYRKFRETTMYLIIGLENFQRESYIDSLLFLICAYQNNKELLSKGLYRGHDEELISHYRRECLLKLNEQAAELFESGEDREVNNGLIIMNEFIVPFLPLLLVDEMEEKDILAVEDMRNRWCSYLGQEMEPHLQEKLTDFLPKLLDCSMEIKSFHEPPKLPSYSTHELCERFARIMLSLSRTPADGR", "assay": "Ubiquitin-Rhodamine 110 Assay for USP25 Activity, Example A-2", "type": "biochemical", "details": "Ubiquitin-Rhodamine 110 assay, Example A-2; read-out: USP25 A-2 IC50 range", "summary_of_the_method": "(§1)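 Cleavage of ubiquitin-rhodamine 110 (25 nM, well below Km) by His-tagged USP25 at 75 pM is measured fluorimetrically after 45 min at room temperature and acid quench. Inhibitors are preincubated with enzyme for 30 minutes. IC50 values come from four-parameter logistic curve fitting.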", "units": {"IC50": "nM"}, "values": [{"smiles": "Cc1cnc2c(N)c(C(=O)N[C@H]3CCc4cc(N5CCNC[C@@H](O)C5)ccc4C3)sc2n1", "note": "(single isomer, unassigned) [Example 7-4]", "IC50": "200 to 2000"}, {"smiles": "Cc1cnc2c(N)c(C(=O)N[C@@H]3CCc4cc(N5CCNC[C@@H](O)C5)ccc4C3)sc2n1", "note": "(single isomer, unassigned) [Example 7-5]", "IC50": "200 to 2000"}, {"smiles": "Cc1cnc2c(N)c(C(=O)N[C@H]3CCc4cc(N5CCNC[C@H](O)C5)ccc4C3)sc2n1", "note": "(single isomer, unassigned) [Example 7-6]", "IC50": "> 2000"}, {"smiles": "Cc1cnc2c(N)c(C(=O)N[C@@H]3CCc4cc(N5CCNC[C@H](O)C5)ccc4C3)sc2n1", "note": "(single isomer, unassigned) [Example 7-7]", "IC50": "> 2000"}, {"smiles": "Cc1ccc2c(N)c(C(=O)N[C@H]3CCc4cc(N5CCN[C@H](CO)C5)ccc4C3)sc2n1", "note": "(single isomer, unassigned) [Example 7-8]", "IC50": "> 2000"}, {"smiles": "Cc1ccc2c(N)c(C(=O)N[C@H]3CCc4cc(N5CCN[C@@H](CO)C5)ccc4C3)sc2n1", "note": "(single isomer, unassigned) [Example 7-9]", "IC50": "> 2000"}, {"smiles": "Cc1ccc2c(N)c(C(=O)N[C@@H]3CCc4cc(N5CCN[C@H](CO)C5)ccc4C3)sc2n1", "note": "(single isomer, unassigned) [Example 7-10]", "IC50": "200 to 2000"}, {"smiles": "Cc1ccc2c(N)c(C(=O)N[C@@H]3CCc4cc(N5CCN[C@@H](CO)C5)ccc4C3)sc2n1", "note": "(single isomer, unassigned) [Example 7-11]", "IC50": "200 to 2000"}, {"smiles": "Cc1ccc2c(N)c(C(=O)N[C@H]3COc4cc(O[C@@H]5COC6(CNC6)C5)ccc4C3)sc2n1", "note": "(single isomer, unassigned) [Example 9-1]", "IC50": "50 to 200"}, {"smiles": "Cc1ccc2c(N)c(C(=O)N[C@H]3COc4cc(O[C@H]5COC6(CNC6)C5)ccc4C3)sc2n1", "note": "(single isomer, unassigned) [Example 9-2]", "IC50": "50 to 200"}, {"smiles": "CO[C@H]1CN(c2cc(F)c3c(c2)OC[C@H](NC(=O)c2sc4nc(C)ccc4c2N)C3)C[C@@H]1N", "note": "(single isomer, unassigned) [Example 10-3]", "IC50": "200 to 2000"}, {"smiles": "Cc1nc2sc(C(=O)N[C@H]3CCc4cc(N5CC6CCC(C5)N6)ccc4C3)c(N)c2cc1F", "note": "(single isomer, unassigned) [Example 11-3]", "IC50": "200 to 2000"}, {"smiles": "Cc1nc2sc(C(=O)N[C@@H]3CCc4cc(N5CC6CCC(C5)N6)ccc4C3)c(N)c2cc1F", "note": "(single isomer, unassigned) [Example 11-4]", "IC50": "50 to 200"}, {"smiles": "COc1ccc2c(N)c(C(=O)N[C@H]3CCc4cc(N5CC6CCC(C5)N6)ccc4C3)sc2n1", "note": "(single isomer, unassigned) [Example 11-5]", "IC50": "200 to 2000"}, {"smiles": "COc1ccc2c(N)c(C(=O)N[C@@H]3CCc4cc(N5CC6CCC(C5)N6)ccc4C3)sc2n1", "note": "(single isomer, unassigned) [Example 11-6]", "IC50": "> 2000"}, {"smiles": "Cc1cnc2c(N)c(C(=O)N[C@H]3CCc4cc(N5CC6CCC(C5)N6)ccc4C3)sc2n1", "note": "(single isomer, unassigned) [Example 11-7]", "IC50": "200 to 2000"}, {"smiles": "Cc1cnc2c(N)c(C(=O)N[C@@H]3CCc4cc(N5CC6CCC(C5)N6)ccc4C3)sc2n1", "note": "(single isomer, unassigned) [Example 11-8]", "IC50": "> 2000"}, {"smiles": "CCn1ccc2cc(C(=O)N[C@H]3CCc4cc(N5CC6CCC(C5)N6)ccc4C3)cnc21", "note": "(single isomer, unassigned) [Example 11-9]", "IC50": "> 2000"}, {"smiles": "CCn1ccc2cc(C(=O)N[C@@H]3CCc4cc(N5CC6CCC(C5)N6)ccc4C3)cnc21", "note": "(single isomer, unassigned) [Example 11-10]", "IC50": "200 to 2000"}, {"smiles": "Cc1ccc2c(N)c(C(=O)N[C@H]3CCc4cc(N5CCNCC5)cc(F)c4C3)sc2n1", "note": "(single isomer, unassigned) [Example 11-11]", "IC50": "> 2000"}, {"smiles": "Cc1ccc2c(N)c(C(=O)N[C@@H]3CCc4cc(N5CCNCC5)cc(F)c4C3)sc2n1", "note": "(single isomer, unassigned) [Example 11-12]", "IC50": "200 to 2000"}, {"smiles": "Cc1cnc2c(N)c(C(=O)N[C@H]3CCc4cc(N5CC6CCC(C5)N6)cc(F)c4C3)sc2n1", "note": "(single isomer, unassigned) [Example 11-13]", "IC50": "> 2000"}, {"smiles": "Cc1cnc2c(N)c(C(=O)N[C@@H]3CCc4cc(N5CC6CCC(C5)N6)cc(F)c4C3)sc2n1", "note": "(single isomer, unassigned) [Example 11-14]", "IC50": "200 to 2000"}, {"smiles": "Cc1ccc2c(N)c(C(=O)N[C@@H]3COc4cc(N5CCNCC5)ccc4[C@@H]3C)sc2n1", "note": "(single isomer, unassigned) [Example 11-18]", "IC50": "> 2000"}, {"smiles": "CCn1ccc2cc(C(=O)N[C@@H]3CCc4cc(N5CC6CCC(C5)N6)ccc4C3)nnc21", "note": "(single isomer, unassigned) [Example 11-23]", "IC50": "> 2000"}, {"smiles": "CCn1ccc2cc(C(=O)N[C@H]3CCc4cc(N5CC6CCC(C5)N6)ccc4C3)nnc21", "note": "(single isomer, unassigned) [Example 11-24]", "IC50": "> 2000"}]}, {"molecular_target": "T1, USP25 (USP25-His6, Boston Biochem E-546)", "assay": "Ubiquitin-Rhodamine 110 Assay for USP25 Activity, Example A-2", "type": "biochemical", "details": "Ubiquitin-Rhodamine 110 assay, format Example A-2; read-out: USP25 A-2 IC50 range", "summary_of_the_method": "as §1", "units": {"IC50": "nM"}, "values": [{"smiles": "Cc1ccc2c(N)c(C(=O)N[C@H]3CCc4cc(N5C6CNCC5C6)ccc4C3)sc2n1", "note": "(single isomer, unassigned) [Example 11-35]", "IC50": "200 to 2000"}, {"smiles": "Cc1ccc2c(N)c(C(=O)N[C@@H]3CCc4cc(N5C6CNCC5C6)ccc4C3)sc2n1", "note": "(single isomer, unassigned) [Example 11-36]", "IC50": "200 to 2000"}, {"smiles": "Cc1nc2sc(C(=O)N[C@H]3CCc4cc(N5CC6CCC(C5)N6)ccc4C3)c(N)c2s1", "note": "(single isomer, unassigned) [Example 12-1]", "IC50": "> 2000"}, {"smiles": "Cc1ccc2c(N)c(C(=O)N[C@H]3COc4c(F)c(N5CC6CCC(C5)N6)cc(F)c4C3)sc2n1", "note": "(single isomer, unassigned) [Example 13-1]", "IC50": "50 to 200"}, {"smiles": "Cc1ccc2c(N)c(C(=O)N[C@@H]3COc4c(F)c(N5CC6CCC(C5)N6)cc(F)c4C3)sc2n1", "note": "(single isomer, unassigned) [Example 13-2]", "IC50": "> 2000"}, {"smiles": "Cc1ccc2c(N)c(C(=O)N[C@@H]3COc4cc(N5CCNCC5)c(Cl)cc4C3)sc2n1", "note": "(single isomer, unassigned) [Example 13-6]", "IC50": "50 to 200"}, {"smiles": "Cc1nc2sc(C(=O)N[C@@H]3CCc4c(C#N)c(N5CC6CCC(C5)N6)cc(F)c4C3)c(N)c2s1", "note": "(single isomer, unassigned) [Example 14-22]", "IC50": "> 2000"}, {"smiles": "Cc1ccc2c(N)c(C(=O)N[C@@H]3CCc4cc(N5CCNCC5)cnc4C3)sc2n1", "note": "(single isomer, unassigned) [Example 15-1]", "IC50": "> 2000"}, {"smiles": "Cc1ccc2c(N)c(C(=O)N[C@H]3CCc4cc(N5CCNCC5)cnc4C3)sc2n1", "note": "(single isomer, unassigned) [Example 15-2]", "IC50": "> 2000"}, {"smiles": "Cc1ccc2c(N)c(C(=O)N[C@@H]3CCc4c(ccc(N5CC6CCC(C5)N6)c4F)C3)sc2n1", "note": "(single isomer, unassigned) [Example 21-1]", "IC50": "> 2000"}, {"smiles": "Cc1ccc2c(N)c(C(=O)N[C@H]3CCc4c(ccc(N5CC6CCC(C5)N6)c4F)C3)sc2n1", "note": "(single isomer, unassigned) [Example 21-2]", "IC50": "200 to 2000"}, {"smiles": "Cc1ccc2c(N)c(C(=O)N[C@@H]3CCc4cc(N5CC6CCC(C5)N6)c(F)cc4C3)sc2n1", "note": "(single isomer, unassigned) [Example 21-3]", "IC50": "50 to 200"}, {"smiles": "Cc1ccc2c(N)c(C(=O)N[C@H]3CCc4cc(N5CC6CCC(C5)N6)c(F)cc4C3)sc2n1", "note": "(single isomer, unassigned) [Example 21-4]", "IC50": "> 2000"}, {"smiles": "Cc1ccc2c(N)c(C(=O)N[C@@H]3CCc4c(ccc(N5CCNCC5)c4F)C3)sc2n1", "note": "(single isomer, unassigned) [Example 21-5]", "IC50": "50 to 200"}, {"smiles": "Cc1ccc2c(N)c(C(=O)N[C@H]3CCc4c(ccc(N5CCNCC5)c4F)C3)sc2n1", "note": "(single isomer, unassigned) [Example 21-6]", "IC50": "> 2000"}]}]}
